From EPA's ToxValDB 9.5 (doi:10.2903/j.efsa.2014.3744)

How the values were obtained:
Apis mellifera = details: acute, duration: 48 hours, mortality
Canidae = details: chronic; duration: 1 years; oral; Dog Other; clinical chemistry
Daphnia magna = details: chronic/long-term; duration: 21 days; reproduction
Oncorhynchus mykiss = details: chronic/long-term; duration: 96 days; growth
Tagia sp. = details: acute; duration: 14 days; mortality

## CC1(C(=O)Nc2ccc(O)c(Cl)c2Cl)CCCCC1 [Fenhexamid]
Apis mellifera; dermal
  LD50: > 200 µg/piece
Apis mellifera; oral, unspecified
  LD50: > 102 µg/piece
Canidae
  NOAEL: 19.2 mg/kg-day
Colinus virginianus; acute, oral, diet, mortality
  LC50: > 804 mg/kg-day
Colinus virginianus; acute, oral, mortality
  LD50: > 2000 mg/kg-day
Colinus virginianus; reproduction developmental
  NOEC: 154 mg/kg-day
Daphnia magna
  NOEC: 1.03 mg/L
Oncorhynchus mykiss
  NOEC: 0.101 mg/L
Rattus norvegicus; acute, oral, mortality
  LD50: > 5000 mg/kg-day
Rattus norvegicus; reproduction developmental
  NOAEL: 40.2 mg/kg-day
Tagia sp.
  LC50: ≥ 1000 mg/kg
